Source: patent US20220117938A1, “COMBINATON THERAPY WITH A DON PRODRUG AND AN IMMUNE CHECKPOINT INHIBITOR” (DRACEN PHARMACEUTICALS, INC., priority 2019, published 2022)

Experiments:
H22 tumors = test: Anti-tumor efficacy of Compound 1 with and without anti-PD-L1 in the H22 subcutaneous syngeneic model (Example 6); assay type: in vivo, mice
Method: Female BALB/c mice were inoculated subcutaneously at right flank with H22 tumor cells for tumor development. Treatment began on Day 6 post tumor inoculation and the mice were treated for 21 days. Tumor and weight measurements were continued for the duration of the study, and the survival was recorded until Day 106. The results are summarized Table 6-1, Table 6-2, and FIG. 23. In all cases the dosing volume was 10 ml/kg. PD-L1 antibody was obtained from Bioxcell.

LK-2 tumors = test: Anti-tumor efficacy of Compound 1 in the LK-2 xenograft model (Example 13); assay type: in vivo, mice
Method: Female BALB/c nude mice were inoculated subcutaneously in the right flank with LK-2 cells for tumor development. Four days after tumor inoculation, mice with tumor sizes reaching approximately 171 mm^3 (range from 112 mm^3 to 222 mm^3) were selected and assigned into groups using stratified randomization with 8 mice per group based upon their tumor volumes. The treatments were started from the day of randomization (defined as D0), Group 1 was treated with Vehicle control, 10 ml/kg, IP, bid×19; Group 2 was treated with Compound 1, 1.4 mg/kg, SC, 5d ON, 2d OFF×2 cycles, followed Compound 1, 2.8 mg/kg, SC, 5d ON, 2 d OFF×1 cycle; Group 3 was treated with Compound 1, 7 mg/kg, IV, tiw (Mon, Wed, Fri)×3 cycles; and Group 4 was treated with Compound 1, 3.3 mg/kg, IV, tiw (Mon, Wed, Fri)×3 cycles. The tumor sizes were measured two times per week during the treatment. The entire study was terminated on D18 after start of the treatment. All treatments were well-tolerated without any adverse effects or significant body weight loss.

[1] = 0.7 mg/kg 5-day ON 2-day OFF x 3 cycles
[2] = 1.4 mg/kg 5-day ON 2-day OFF x 3 cycles
[3] = Day 26, 0.7 mg/kg 5-day ON 2-day OFF x 3 cycles
[4] = Day 26, 1.4 mg/kg 5-day ON 2-day OFF x 3 cycles
[5] = Group 2, 1.4 mg/kg SC 5 d ON 2 d OFF x2 cycles, then 2.8 mg/kg x1 cycle
[6] = Group 3, 7 mg/kg IV tiw x3 cycles
[7] = Group 4, 3.3 mg/kg IV tiw x3 cycles

SMILES: CC(=O)N[C@@H](Cc1c[nH]c2ccccc12)C(=O)N[C@@H](CCC(=O)C=[N+]=[N-])C(=O)OC(C)C [Compound 1, Isopropyl (S)-2-((S)-2-acetamido-3-(1H-indol-3-yl)propanamido)-6-diazo-5-oxohexanoate]
- Cure Rate (H22 tumors; [1]): 0%
- MST (H22 tumors; [1]): 45 days
- Cure Rate (H22 tumors; [2]): 0%
- MST (H22 tumors; [2]): 47 days
- TGI (H22 tumors; Compound 1 alone 0.7 mg/kg, p<0.001): ~80%
- TGI (H22 tumors; Compound 1 alone 1.4 mg/kg, p<0.001): ~80%
- BWC (H22 tumors; [3]): 0%
- Mean Tumor Vol (H22 tumors; [3]): 529 ± 64 mm^3
- TGI (H22 tumors; [3]): 79%
- BWC (H22 tumors; [4]): 7%
- Mean Tumor Vol (H22 tumors; [4]): 465 ± 133 mm^3
- TGI (H22 tumors; [4]): 82%
- RTV at day 11 (LK-2 tumors; [5]): 8.13 ± 1.31
- T/C (LK-2 tumors; [5]): 84.34%
- TGI (LK-2 tumors; [5]): 19.84%
- Tumor Size at day 14 (LK-2 tumors; [5]): 1359 ± 207 mm^3
- Tumor volume (LK-2 tumors; Group 2, 1.4 mg/kg SC 5 d ON 2 d OFF x2 cycles, then 2.8 mg/kg x1 cycle, day 0): 171 ± 10 mm^3
- Tumor volume (LK-2 tumors; Group 2, 1.4 mg/kg SC 5 d ON 2 d OFF x2 cycles, then 2.8 mg/kg x1 cycle, day 2): 207 ± 19 mm^3
- Tumor volume (LK-2 tumors; Group 2, 1.4 mg/kg SC 5 d ON 2 d OFF x2 cycles, then 2.8 mg/kg x1 cycle, day 4): 217 ± 24 mm^3
- Tumor volume (LK-2 tumors; Group 2, 1.4 mg/kg SC 5 d ON 2 d OFF x2 cycles, then 2.8 mg/kg x1 cycle, day 7): 419 ± 81 mm^3
- Tumor volume (LK-2 tumors; Group 2, 1.4 mg/kg SC 5 d ON 2 d OFF x2 cycles, then 2.8 mg/kg x1 cycle, day 10): 780 ± 128 mm^3
- Tumor volume (LK-2 tumors; Group 2, 1.4 mg/kg SC 5 d ON 2 d OFF x2 cycles, then 2.8 mg/kg x1 cycle, day 14): 1359 ± 207 mm^3
- RTV at day 11 (LK-2 tumors; [6]): 6.29 ± 0.75
- T/C (LK-2 tumors; [6]): 65.30%
- TGI (LK-2 tumors; [6]): 40.73%
- Tumor Size at day 14 (LK-2 tumors; [6]): 1050 ± 113 mm^3
- Tumor volume (LK-2 tumors; Group 3, 7 mg/kg IV tiw x3 cycles, day 0): 171 ± 11 mm^3
- Tumor volume (LK-2 tumors; Group 3, 7 mg/kg IV tiw x3 cycles, day 2): 196 ± 9 mm^3
- Tumor volume (LK-2 tumors; Group 3, 7 mg/kg IV tiw x3 cycles, day 4): 213 ± 8 mm^3
- Tumor volume (LK-2 tumors; Group 3, 7 mg/kg IV tiw x3 cycles, day 7): 256 ± 13 mm^3
- Tumor volume (LK-2 tumors; Group 3, 7 mg/kg IV tiw x3 cycles, day 10): 483 ± 44 mm^3
- Tumor volume (LK-2 tumors; Group 3, 7 mg/kg IV tiw x3 cycles, day 14): 1050 ± 113 mm^3
- Tumor volume (LK-2 tumors; Group 3, 7 mg/kg IV tiw x3 cycles, day 17): 1565 ± 175 mm^3
- RTV at day 11 (LK-2 tumors; [7]): 7.66 ± 0.88
- T/C (LK-2 tumors; [7]): 79.51%
- TGI (LK-2 tumors; [7]): 24.13%
- Tumor Size at day 14 (LK-2 tumors; [7]): 1294 ± 172 mm^3
- Tumor volume (LK-2 tumors; Group 4, 3.3 mg/kg IV tiw x3 cycles, day 0): 170 ± 10 mm^3
- Tumor volume (LK-2 tumors; Group 4, 3.3 mg/kg IV tiw x3 cycles, day 2): 193 ± 6 mm^3
- Tumor volume (LK-2 tumors; Group 4, 3.3 mg/kg IV tiw x3 cycles, day 4): 211 ± 6 mm^3
- Tumor volume (LK-2 tumors; Group 4, 3.3 mg/kg IV tiw x3 cycles, day 7): 374 ± 47 mm^3
- Tumor volume (LK-2 tumors; Group 4, 3.3 mg/kg IV tiw x3 cycles, day 10): 577 ± 68 mm^3
- Tumor volume (LK-2 tumors; Group 4, 3.3 mg/kg IV tiw x3 cycles, day 14): 1294 ± 172 mm^3
